From ChEMBL document CHEMBL4673230, “Total Synthesis of Natural Lembehyne C and Investigation of Its Cytotoxic Properties” (J Nat Prod, 2020)
The source made the active and inactive calls. The calls are words filed in the database; no cut-off is given here.

Assays:
Jurkat [1] = assay: Induction of cell cycle arrest in human Jurkat cells assessed as accumulation at G1 phase at 200 nM after 24 hrs by Guava Cell Cycle reagent based flow cytometric analysis relative to control; format: functional
Jurkat [2] = assay: Induction of DNA damage in human Jurkat cells assessed as increase in H2Ax phosphorylation at 0.4 uM after 2 hrs by Alexa Fluor555 staining based flow cytometric analysis; format: functional, cell-based
Jurkat [3] = assay: Induction of apoptosis in human Jurkat cells assessed as viable cells at 100 nM after 24 hrs by Annexin V/7-AAD staining.based flow cytometric analysis relative to control; format: functional; conditions: read-out: Activity
Jurkat [4] = assay: Induction of apoptosis in human Jurkat cells assessed as viable cells at 50 nM after 24 hrs by Annexin V/7-AAD staining.based flow cytometric analysis relative to control; format: functional; conditions: read-out: Activity
Jurkat [5] = assay: Induction of mitochondrial membrane potential loss in human Jurkat cells after 4 hrs by flow cytometric analysis; format: functional, cell-based
Jurkat [6] = assay: Induction of ROS generation in human Jurkat cells assessed as apoptotic cells at 200 nM after 24 hrs by MitoSox Red/annexin V-CF488A staining based flow cytometric analysis (reference value: 3.18%); format: functional
Jurkat [7] = assay: Induction of apoptosis in human Jurkat cells assessed as early apoptotic cells at 100 nM after 24 hrs by Annexin V/7-AAD staining.based flow cytometric analysis relative to control; format: functional
Jurkat [8] = assay: Induction of cell cycle arrest in human Jurkat cells assessed as accumulation at G2/G1 phase at 100 nM after 24 hrs by Guava Cell Cycle reagent based flow cytometric analysis relative to control; format: functional
Jurkat [9] = assay: Induction of cell cycle arrest in human Jurkat cells assessed as accumulation at G2 phase at 400 nM after 24 hrs by Guava Cell Cycle reagent based flow cytometric analysis relative to control; format: functional
Jurkat [10] = assay: Induction of cell cycle arrest in human Jurkat cells assessed as accumulation at G2 phase at 100 nM after 24 hrs by Guava Cell Cycle reagent based flow cytometric analysis relative to control; format: functional
Jurkat [11] = assay: Induction of mitochondrial membrane potential loss in human Jurkat cells assessed as early apoptotic cells at 200 nM after 4 hrs by MitoSense Red/7-AAD. flow cytometric analysis relative to control; format: functional
Jurkat [12] = assay: Induction of apoptosis in human Jurkat cells assessed as viable cells at 200 nM after 24 hrs by Annexin V/7-AAD staining.based flow cytometric analysis relative to control; format: functional; conditions: read-out: Activity
Jurkat [13] = assay: Induction of cell cycle arrest in human Jurkat cells assessed as accumulation at S phase at 400 nM after 24 hrs by Guava Cell Cycle reagent based flow cytometric analysis relative to control; format: functional
Jurkat [14] = assay: Induction of cell cycle arrest in human Jurkat cells assessed as accumulation at G2/G1 phase at 50 nM after 24 hrs by Guava Cell Cycle reagent based flow cytometric analysis relative to control; format: functional
Jurkat [15] = assay: Induction of cell cycle arrest in human Jurkat cells assessed as accumulation at G1 phase at 400 nM after 24 hrs by Guava Cell Cycle reagent based flow cytometric analysis relative to control; format: functional
Jurkat [16] = assay: Induction of ROS generation in human Jurkat cells assessed as mitochondria damaged cells at 200 nM after 4 hrs by MitoSox Red/annexin V-CF488A staining based flow cytometric analysis (reference value: 0%); format: functional
[17] = Effect on total p70S6K level in human jurkat cells at 400 nM by magnetic bead based immunoassay; format: cell-based; conditions: 0.4 µM
Jurkat [18] = assay: Induction of cell cycle arrest in human Jurkat cells assessed as accumulation at sub-G1 phase at 100 nM after 24 hrs by Guava Cell Cycle reagent based flow cytometric analysis relative to control; format: functional
Jurkat [19] = assay: Induction of cell cycle arrest in human Jurkat cells assessed as accumulation at super-G2 phase at 200 nM after 24 hrs by Guava Cell Cycle reagent based flow cytometric analysis relative to control; format: functional
Jurkat [20] = assay: Induction of apoptosis in human Jurkat cells assessed as necrotic cells at 400 nM after 24 hrs by Annexin V/7-AAD staining.based flow cytometric analysis relative to control; format: functional
Jurkat [21] = assay: Induction of cell cycle arrest in human Jurkat cells assessed as accumulation at super-G2 phase at 100 nM after 24 hrs by Guava Cell Cycle reagent based flow cytometric analysis relative to control; format: functional
Jurkat [22] = assay: Induction of cell cycle arrest in human Jurkat cells assessed as accumulation at S phase at 50 nM after 24 hrs by Guava Cell Cycle reagent based flow cytometric analysis relative to control; format: functional
Jurkat [23] = assay: Induction of cell cycle arrest in human Jurkat cells assessed as accumulation at S phase at 200 nM after 24 hrs by Guava Cell Cycle reagent based flow cytometric analysis relative to control; format: functional
Jurkat [24] = assay: Induction of ROS generation in human Jurkat cells assessed as apoptotic cells with clear mitochondrial damages at 200 nM after 4 hrs by MitoSox Red/annexin V-CF488A staining based flow cytometric analysis (reference value: 0.39%); format: functional
[25] = Effect on total STAT5 level in human jurkat cells at 400 nM by magnetic bead based immunoassay; format: cell-based; conditions: 0.4 µM
Jurkat [26] = assay: Induction of cell cycle arrest in human Jurkat cells assessed as accumulation at G2/G1 phase at 200 nM after 24 hrs by Guava Cell Cycle reagent based flow cytometric analysis relative to control; format: functional
U-937 = assay: Cytotoxicity against human U937 cells assessed as reduction in cell viability by 7-AAD staining based flow cytometric analysis; format: functional
Jurkat [27] = assay: Induction of ROS generation in human Jurkat cells assessed as apoptotic cells with clear mitochondrial damages at 200 nM after 24 hrs by MitoSox Red/annexin V-CF488A staining based flow cytometric analysis (reference value: 0.39%); format: functional
Jurkat [28] = assay: Induction of apoptosis in human Jurkat cells assessed as necrotic cells at 200 nM after 24 hrs by Annexin V/7-AAD staining.based flow cytometric analysis relative to control; format: functional
Jurkat [29] = assay: Induction of apoptosis in human Jurkat cells assessed as late apoptotic cells at 50 nM after 24 hrs by Annexin V/7-AAD staining.based flow cytometric analysis relative to control; format: functional
Jurkat [30] = assay: Induction of ROS generation in human Jurkat cells assessed as living undamaged cells at 200 nM after 24 hrs by MitoSox Red/annexin V-CF488A staining based flow cytometric analysis (reference value: 95.44%); format: functional

## C#C[C@H](O)CCCCCCCCC/C=C\CC/C=C\CC/C=C\CCCCCCCCCCCCCCCC
Jurkat [1]
  Activity: 33.86%
Jurkat [2]
  Activity: inactive
Jurkat [3]
  viability at 0.1 µM: 41.7%
Jurkat [4]
  viability at 0.05 µM: 59.8%
Jurkat [5]
  Activity: Dose-dependent effect
Jurkat [6]
  Activity: 45.78%
Jurkat [7]
  Activity: 12.63%
Jurkat [8]
  Activity: 1.94%
Jurkat [9]
  Activity: 7.68%
Jurkat [10]
  Activity: 7.28%
Jurkat [11]
  Activity: 0.9%
Jurkat [12]
  viability at 0.2 µM: 36.1%
Jurkat [13]
  Activity: 31.5%
Jurkat [14]
  Activity: 1.91%
Jurkat [15]
  Activity: 30.24%
Jurkat [16]
  Activity: 0.16%
[17]
  Activity: Toxic
Jurkat [18]
  Activity: 13.99%
Jurkat [19]
  Activity: 0.91%
Jurkat [20]
  Activity: 1.01%
Jurkat [21]
  Activity: 1.21%
Jurkat [22]
  Activity: 27.85%
Jurkat [23]
  Activity: 28.57%
Jurkat [24]
  Activity: 25.4%
[25]
  Activity: Toxic
Jurkat [26]
  Activity: 1.91%
U-937
  IC50: 124 nM
Jurkat [27]
  Activity: 20.58%
Jurkat [28]
  Activity: 7.51%
Jurkat [29]
  Activity: 23.53%
Jurkat [30]
  Activity: 33.64%
